Measured values published in patent US8916702B2 (priority 2012, dated 2014).
pEC50: −log10 of the molar value. Read-outs that look alike come from different tables or passages of the source.

Test system: HCV pseudoparticles (genotype 1a HCV E1 and E2 envelope, H77C isolate)
Experiment: microbe, parasite or virus in culture
Assay type: cell-based
Conditions: Hepatitis C virus
[1] = Huh-7, 48 h, read-out: Activity (EC50 class), HCV pseudoparticles, Huh7 cells, luciferase 2 days after infection, average of duplicates
[2] = Huh-7, read-out: Activity (EC50 class), HCV pseudoparticles (genotype 1a, H77C) in Huh7 cells, EC50 expressed as class A/B
[3] = Huh-7, 48 h, read-out: Activity (EC50 class), HCV pseudoparticle infection of Huh7 cells, luciferase 2 days after infection, EC50 expressed as class A/B

Compound | pEC50 [2] | pEC50 [3] | further results
Cc1ccc(NC(=O)C(=O)NCC(C)(C)CNC(=O)c2ccc(Nc3nc(NC4(c5ccc(Cl)cc5)CC4)nc(OCc4ccc(C(C)C)cc4)n3)cc2F)cc1 [Compound 3827, N^1-(3-(4-((4-((1-(4-chlorophenyl)cyclopropyl)amino)-6-((4-isopropylbenzyl)oxy)-1,3,5-triazin-2-yl)amino)-2-fluorobenzamido)-2,2-dimethylpropyl)-N^2-(p-tolyl)oxalamide] | – | – | pEC50 [1]: 8.00 to 11.00
COc1ccc(C2(Nc3nc(Nc4ccc(C(=O)NCC(C)(C)CNC(=O)C(N)=O)cc4)nc(OCC(F)(F)F)n3)CC2)cc1Cl [Compound 3333] | 8.00 to 11.00 | – | –
O=C(NCC[C@H](NC(=O)c1ccc(Nc2nc(NC3(c4ccc(Cl)cc4)CC3)nc(OCC(F)(F)F)n2)cc1)C(=O)O)C(=O)Nc1ccc(Oc2cccnc2)nc1 [Compound 3624] | – | – | pEC50 [1]: 8.00 to 11.00
COC(=O)[C@H](CCNC(=O)C(=O)Nc1ccc(O)nc1)NC(=O)c1ccc(Nc2nc(NC3(c4ccc(Cl)cc4)CC3)nc(OCC(F)(F)F)n2)cc1 [Compound 1520] | – | 8.00 to 11.00 | –
COC(=O)[C@H](CNC(=O)C(=O)Nc1cccc(Cc2ccccc2)c1)NC(=O)c1ccc(Nc2nc(NC3(c4ccc(Cl)cc4)CC3)nc(OCC(F)(F)F)n2)cc1 [Compound 3714] | – | – | pEC50 [1]: 8.00 to 11.00
O=C(NCCC(NC(=O)c1ccc(Nc2nc(NC3(c4ccc(Cl)cc4)CC3)nc(OCC(F)(F)F)n2)cc1)C(=O)O)C(=O)Nc1ccc(-n2ccnc2)cc1 (centres unmarked) [Compound 3521] | 8.00 to 11.00 | – | –
COC(=O)[C@H](CNC(=O)C(=O)Nc1ccc(Cn2ccnc2)cc1)NC(=O)c1ccc(Nc2nc(NC3(c4ccc(Cl)cc4)CC3)nc(OCC(F)(F)F)n2)cc1 [Compound 3202] | 8.00 to 11.00 | – | –
O=C(NC/C(=N/C(=O)c1ccc(Nc2nc(NC3(c4ccc(Cl)cc4)CC3)nc(OCC(F)(F)F)n2)cc1)C(=O)O)C(=O)Nc1ccc(Cc2ccncc2)cc1 [Compound 3162] | 8.00 to 11.00 | – | –
O=C(NCC[C@H](NC(=O)c1ccc(Nc2nc(NC3(c4ccc(Cl)cc4)CC3)nc(OCC(F)(F)F)n2)cc1)C(=O)O)C(=O)Nc1ccc(-n2cncn2)cc1 [Compound 3231] | 8.00 to 11.00 | – | –
O=C(NC[C@H](NC(=O)c1ccc(Nc2nc(NC3(c4ccc(Cl)cc4)CC3)nc(OCC(F)(F)F)n2)cc1)C(=O)O)C(=O)Nc1ccc(-n2cnnn2)cc1 [Compound 3276] | 8.00 to 11.00 | – | –
CN(CCCN(C)C(=O)c1ccc(Nc2nc(NC3(c4ccc(Cl)cc4)CC3)nc(OCC(F)(F)F)n2)cc1)C(=O)C(=O)N1CCc2ccccc2C1 [Compound 3433] | 6.00 to 8.00 | – | –
COC(=O)[C@H](CNC(=O)C(=O)Nc1cccc(OC)c1)NC(=O)c1ccc(Nc2nc(NC3(c4ccc(Cl)cc4)CC3)nc(OCC(F)(F)F)n2)cc1 [Compound 1250] | – | 8.00 to 11.00 | –
O=C(Nc1ccc(F)cc1)C(=O)NC1CCCC1CNC(=O)c1ccc(Nc2nc(NC3(c4ccc(Cl)cc4)CC3)nc(OCC(F)(F)F)n2)cc1 (centres unmarked) [Compound 1465, N^1-(2-((4-((4-((1-(4-chlorophenyl)cyclopropyl)amino)-6-(2,2,2-trifluoroethoxy)-1,3,5-triazin-2-yl)amino)benzamido)methyl)cyclopentyl)-N^2-(4-fluorophenyl)oxalamide] | – | 8.00 to 11.00 | –
CC(C)(CNC(=O)C(=O)Nc1ncco1)CNC(=O)c1ccc(Nc2nc(NC3(c4ccc(Cl)cc4)CC3)nc(OCC(F)(F)F)n2)cc1 [Compound 3027] | 8.00 to 11.00 | – | –
Cc1cc(NC(=O)C(=O)NCC(C)(C)CNC(=O)c2ccc(Nc3nc(NC4(c5ccc(Cl)cc5)CC4)nc(OCC(F)(F)F)n3)cc2)no1 [Compound 1548] | – | 8.00 to 11.00 | –
CCc1cccc(NC(=O)C(=O)NC[C@H](NC(=O)c2ccc(Nc3nc(NC4(c5ccc(Cl)cc5)CC4)nc(OCC(F)(F)F)n3)cc2)C(=O)OC)c1 [Compound 3688] | – | – | pEC50 (Huh-7, 48 h, HCV pseudoparticles, Huh7 cells, luciferase 2 days after infection, average of duplicates): 9.01; pEC50 [1]: 8.00 to 11.00
COC(=O)[C@H](CCNC(=O)C(=O)N[C@H](C)C1CC1)NC(=O)c1ccc(Nc2nc(NC3(c4ccc(Cl)cc4)CC3)nc(OCC(F)(F)F)n2)cc1 [Compound 1377] | – | 8.00 to 11.00 | –
COC(=O)[C@@H](CCNC(=O)C(=O)Nc1cccc(C)c1)NC(=O)c1ccc(Nc2nc(NC3(c4ccc(Cl)cc4)CC3)nc(OCC(F)(F)F)n2)cc1 [Compound 3572] | 8.00 to 11.00 | – | –
COc1cc2nc(NC(=O)C(=O)NCC(C)(C)CNC(=O)c3ccc(Nc4nc(NC5(c6ccc(Cl)cc6)CC5)nc(OCC(F)(F)F)n4)cc3)sc2cc1OC [Compound 3665] | – | – | pEC50 [1]: 8.00 to 11.00
CC(C)(CNC(=O)C(=O)Nc1ccc(C#N)c(Cl)c1)CNC(=O)c1ccc(Nc2nc(NC3(c4ccc(Cl)cc4)CC3)nc(OCC(F)(F)F)n2)cc1 [Compound 3374] | 8.00 to 11.00 | – | –
CC(C)(CNC(=O)C(=O)Nc1ccccc1C(N)=O)CNC(=O)c1ccc(Nc2nc(NC3(c4ccc(Cl)cc4)CC3)nc(OCC(F)(F)F)n2)cc1 [Compound 3375] | 8.00 to 11.00 | – | –
O=C(NCC[C@H](NC(=O)c1ccc(Nc2nc(NC3(c4ccc(Cl)cc4)CC3)nc(OCC(F)(F)F)n2)cc1)C(=O)O)C(=O)Nc1cc(F)c(F)cc1F [Compound 1514] | – | 8.00 to 11.00 | pEC50 (Huh-7, 48 h, HCV pseudoparticle infection of Huh7 cells, luciferase 2 days after infection, average of duplicates): 10.40

Compound | pEC50 [2] | pEC50 [3] | further results
COc1ccc(NC(=O)C(=O)NCC[C@H](NC(=O)c2ccc(Nc3nc(NC4(c5ccc(Cl)cc5)CC4)nc(OCC(F)(F)F)n3)cc2)C(=O)O)cc1 [Compound 1274] | – | 8.00 to 11.00 | –
COc1cccc(NC(=O)C(=O)NC[C@H](NC(=O)c2ccc(Nc3nc(NC4(c5ccc(Cl)cc5)CC4)nc(OCC(F)(F)F)n3)cc2)C(=O)O)c1 [Compound 1358] | – | 8.00 to 11.00 | –
CC(C)(CNC(=O)C(=O)Nc1ccc(CCC(=O)O)cc1)CNC(=O)c1ccc(Nc2nc(NC3(c4ccc(Cl)cc4)CC3)nc(OCC(F)(F)F)n2)cc1 [Compound 1483] | – | 8.00 to 11.00 | –
CC(C)(CNC(=O)C(=O)Nc1cccc(C(F)(F)F)c1)CNC(=O)c1ccc(Nc2nc(NC3(c4ccc(Cl)cc4)CC3)nc(OCC(F)(F)F)n2)cc1 [Compound 3019] | 8.00 to 11.00 | – | –
CC(CNC(=O)C(=O)NC1CCCCC1)CNC(=O)c1ccc(Nc2nc(NC3(c4ccc(Cl)cc4)CC3)nc(OCC(F)(F)F)n2)cc1 (centres unmarked) [Compound 3472] | 8.00 to 11.00 | – | –
COC(=O)[C@@H](CCNC(=O)C(=O)NCC1(Cn2nc(C)cc2C)CC1)NC(=O)c1ccc(Nc2nc(NC3(c4ccc(Cl)cc4)CC3)nc(OCC(F)(F)F)n2)cc1 [Compound 1383] | – | 8.00 to 11.00 | –
O=C(NCc1ccc(F)c(F)c1)C(=O)NC[C@H](NC(=O)c1ccc(Nc2nc(NC3(c4ccc(Cl)cc4)CC3)nc(OCC(F)(F)F)n2)cc1)C(=O)O [Compound 1171] | – | 8.00 to 11.00 | –
CC(C)c1ccc(NC(=O)C(=O)NC[C@H](NC(=O)c2ccc(Nc3nc(NC4(c5ccc(Cl)cc5)CC4)nc(OCC(F)(F)F)n3)cc2)C(=O)O)cc1 [Compound 3295] | 8.00 to 11.00 | – | –
O=C(NCc1ccccc1)C(=O)NC[C@H](NC(=O)c1ccc(Nc2nc(NC3(c4ccc(Cl)cc4)CC3)nc(OCC(F)(F)F)n2)cc1)C(=O)O [Compound 1164] | – | 8.00 to 11.00 | –
CC(C)(CNC(=O)C(=O)Nc1ccccn1)CNC(=O)c1ccc(Nc2nc(NC3(c4ccc(Cl)cc4)CC3)nc(OCC(F)(F)F)n2)cc1 [Compound 3248] | 8.00 to 11.00 | – | –
Cc1cc(C)nc(N(C)c2ccc(NC(=O)C(=O)NC/C(=N/C(=O)c3ccc(Nc4nc(NC5(c6ccc(Cl)cc6)CC5)nc(OCC(F)(F)F)n4)cc3)C(=O)O)cc2)n1 [Compound 3171] | 8.00 to 11.00 | – | –
CCOC(=O)[C@H](CCCNC(=O)C(=O)N(C)C)NC(=O)c1ccc(Nc2nc(NC3(c4ccc(Cl)cc4)CC3)nc(OCC(F)(F)F)n2)cc1 [Compound 1031, (S)-ethyl 2-(4-(4-(1-(4-chlorophenyl)cyclopropylamino)-6-(2,2,2-trifluoroethoxy)-1,3,5-triazin-2-ylamino)benzamido)-5-(2-(dimethylamino)-2-oxoacetamido)pentanoate] | – | 8.00 to 11.00 | –
COC(=O)[C@H](CCNC(=O)C(=O)NCCc1c[nH]cn1)NC(=O)c1ccc(Nc2nc(NC3(c4ccc(Cl)cc4)CC3)nc(OCC(F)(F)F)n2)cc1 [Compound 1318] | – | 8.00 to 11.00 | –
O=C(NCC[C@H](NC(=O)c1ccc(Nc2nc(NC3(c4ccc(Cl)cc4)CC3)nc(OCC(F)(F)F)n2)cc1)C(=O)O)C(=O)Nc1ccc(Cn2ccnc2)cc1 [Compound 3540] | 6.00 to 8.00 | – | pEC50 (Huh-7, 48 h, HCV pseudoparticles (genotype 1a, H77C) in Huh7 cells, average of duplicate, luciferase 2 days after infection): 7.58
CC(C)(CNC(=O)C(=O)Nc1ccccc1-n1ccnc1)CNC(=O)c1ccc(Nc2nc(NC3(c4ccc(Cl)cc4)CC3)nc(OCC(F)(F)F)n2)cc1 [Compound 3180] | 8.00 to 11.00 | – | –
COC(=O)[C@H](CCNC(=O)C(=O)Nc1ccc(-c2ncco2)cc1)NC(=O)c1ccc(Nc2nc(NC3(c4ccc(Cl)cc4)CC3)nc(OCC(F)(F)F)n2)cc1 [Compound 3326] | 8.00 to 11.00 | – | –
COc1ccc(CCNC(=O)C(=O)NC[C@H](NC(=O)c2ccc(Nc3nc(NC4(c5ccc(Cl)cc5)CC4)nc(OCC(F)(F)F)n3)cc2)C(=O)O)cc1 [Compound 1399] | – | 8.00 to 11.00 | –
COC(=O)/C(CCNC(=O)C(=O)Nc1ccc(C(F)(F)F)nc1)=N\C(=O)c1ccc(Nc2nc(NC3(c4ccc(Cl)cc4)CC3)nc(OCC(F)(F)F)n2)cc1 [Compound 3594] | 8.00 to 11.00 | – | –
CN(CCCN(C)C(=O)c1ccc(Nc2nc(NC3(c4ccc(Cl)cc4)CC3)nc(OCC(F)(F)F)n2)cc1)C(=O)C(=O)Nc1cc(F)cc(F)c1 [Compound 3427] | 8.00 to 11.00 | – | –
CC(C)(C)OC(=O)N1CCC(NC(=O)C(=O)NC[C@H](NC(=O)c2ccc(Nc3nc(NC4(c5ccc(Cl)cc5)CC4)nc(OCC(F)(F)F)n3)cc2)C(=O)O)CC1 [Compound 1079] | – | 8.00 to 11.00 | –
Cc1ccc(NC(=O)C(=O)NCC(C)(C)CNC(=O)c2ccc(Nc3nc(NC4(c5ccc(Cl)cc5)CC4)nc(OCc4ccccc4)n3)cc2)cc1 [Compound 3843] | – | – | pEC50 [1]: 8.00 to 11.00
CC(C)(CNC(=O)C(=O)Nc1ccc(Cc2ccccc2)cc1)CNC(=O)c1ccc(Nc2nc(NC3(c4ccc(Cl)cc4)CC3)nc(OCC(F)(F)F)n2)cc1 [Compound 1579] | – | 8.00 to 11.00 | –
